Data reported in the OPERA property sets (Mansouri et al. 2018).

| SMILES | logP |
| --- | --- |
| Cc1ccc(S(=O)(=O)c2ccc(N)cc2)cc1 | 2.4 |
| CCNc1ccc(S(=O)(=O)c2ccc(N)cc2)cc1 | 1.98 |
| Nc1ccc(S(=O)(=O)c2ccc(O)cc2)cc1 | 1.57 |
| Nc1ccc(S(=O)(=O)c2ccc(O)cc2O)cc1 | 1.29 |
| CN(C)c1ccc(S(=O)(=O)c2ccc(N)cc2)cc1 | 1.99 |
| Nc1ccc(S(=O)(=O)c2ccccc2N)cc1 | 1.56 |
| CCN(CC)C(=O)c1ccc(S(=O)(=O)c2ccc(N)cc2)cc1 | 1.44 |
| Cc1cc(C)c(S(=O)(=O)c2ccc(N)cc2)c(C)c1 | 3.06 |
| Nc1ccc(S(=O)(=O)c2ccc([N+](=O)[O-])cc2)cc1 | 2.04 |
| NC(=O)c1ccc(S(=O)(=O)c2ccc(N)cc2)cc1 | 0.9 |
| COc1cc(OC)c(S(=O)(=O)c2ccc(N)cc2)c(OC)c1 | 1.03 |
| COC(=O)c1ccc(S(=O)(=O)c2ccc(N)cc2)cc1 | 2.13 |
| COc1ccc(S(=O)(=O)c2ccc(N)cc2)cc1 | 1.96 |
| CC(=O)c1ccc(S(=O)(=O)c2ccc(N)cc2)cc1 | 1.67 |
| Nc1ccc(S(=O)(=O)c2cccc(N)c2)cc1 | 1.03 |
| COc1ccc(S(=O)(=O)c2ccc(N)cc2)c(OC)c1 | 1.64 |
| Nc1ccc(S(=O)(=O)c2ccc(Cl)cc2)cc1 | 2.57 |
| Nc1ccc(S(=O)(=O)c2ccc([N+](=O)[O-])cc2[N+](=O)[O-])cc1 | 1.84 |
| Nc1ccc(S(=O)(=O)c2ccccc2)cc1 | 1.76 |
| Nc1ccc(S(=O)(=O)c2ccc(N)cc2N)cc1 | 0.38 |
| Nc1ccc(S(=O)(=O)c2ccc(NO)cc2)cc1 | 0.88 |
| N#Cc1ccc(S(=O)(=O)c2ccc(N)cc2)cc1 | 1.63 |
| Cc1ccc(S(=O)(=O)c2ccc(N)cc2)c(C)c1 | 2.71 |
| Nc1ccc(S(=O)(=O)c2ccc(Cl)cc2Cl)cc1 | 3.12 |
| Nc1ccc(S(=O)(=O)c2ccc(Br)cc2)cc1 | 2.85 |
| CCN(CC)c1ccc(S(=O)(=O)c2ccc(N)cc2)cc1 | 3 |
